Like-named read-outs stand apart in the source and are kept apart here.
Assays:
Puccinia recondita = assay: Puccinia test (wheat)/protective; type: in vivo; conditions: wheat plants, protective spray, application rate 500 g/ha, evaluation 10 days after inoculation
Description: Puccinia Test (Wheat)/Protective
• Solvent: 25 parts by weight of N,N-dimethylacetamide • Emulsifier: 0.6 part by weight of alkylaryl polyglycol ether
(§1) To produce a suitable preparation of active compound, 1 part by weight of active compound is mixed with the stated amounts of solvent and emulsifier, and the concentrate is diluted with water to the desired concentration.
To test for protective activity, young plants are sprayed with the preparation of active compound at the stated application rate. After the spray coating has dried on, the plants are sprayed with a conidia suspension of Puccinia recondita. The plants remain in an incubation cabin at about 20° C. and 100% relative atmospheric humidity for 48 hours.
The plants are then placed in a greenhouse at a temperature of about 20° C. and a relative atmospheric humidity of 80% to promote the development of rust pustules.
(§2) Evaluation is carried out 10 days after the inoculation. 0% means an efficacy which corresponds to that of the control, whereas an efficacy of 100% means that no infection is observed.

[1] = logP determination by HPLC on reversed-phase column (EEC directive 79/831 Annex V.A8); type: physicochemical; conditions: reversed-phase C18 HPLC column, pH 2.3, C 18 reversed-phase, 43° C., 0.1% aqueous phosphoric acid/acetonitrile gradient
Description: The logP values given in the Preparation Examples were determined in accordance with EEC directive 79/831 Annex V.A8 by HPLC (High Performance Liquid Chromatography) on a reversed-phase column (C 18). Temperature: 43° C.
Mobile phases for the determination in the acidic range: 0.1% aqueous phosphoric acid, acetonitrile; linear gradient from 10% acetonitrile to 90% acetonitrile.
Calibration was carried out using unbranched alkan-2-ones (having 3 to 16 carbon atoms) with known logP values (determination of the logP values by the retention times using linear interpolation between two successive alkanones).

Sphaerotheca fuliginea = assay: Sphaerotheca test (cucumber)/protective; type: in vivo; conditions: Podosphaera fuliginea, 168 h, read-out: Efficacy in %
Description: Sphaerotheca Test (Cucumber)/Protective
• Solvents: 24.5 parts by weight of acetone • 24.5 parts by weight of N,N-dimethylacetamide • Emulsifier: 1 part by weight of alkylaryl polyglycol ether
(§3) To produce a suitable preparation of active compound, 1 part by weight of active compound is mixed with the stated amounts of solvents and emulsifier, and the concentrate is diluted with water to the desired concentration.
To test for protective activity, young cucumber plants are sprayed with the preparation of active compound at the stated application rate. After the spray coating has dried on, the plants are inoculated with an aqueous spore suspension of Sphaerotheca fuliginea. The plants are then placed in a greenhouse at about 23° C. and a relative atmospheric humidity of about 70%.
(§4) Evaluation is carried out 7 days after the inoculation. 0% means an efficacy which corresponds to that of the control, whereas an efficacy of 100% means that no infection is observed.

Venturia inaequalis = assay: Venturia test (apple)/protective; type: in vivo; conditions: apple plants, protective spray, application rate 100 g/ha, evaluation 10 days after inoculation
Description: Venturia Test (Apple)/Protective
• Solvents: 2.5 parts by weight of acetone • 24.5 parts by weight of dimethylacetamide • Emulsifier: 1.0 part by weight of alkylaryl polyglycol ether
as §3
To test for protective activity, young plants are sprayed with the preparation of active compound at the stated application rate. After the spray coating has dried on, the plants are inoculated with an aqueous conidia suspension of the apple scab pathogen Venturia inaequalis and then remain in an incubation cabinet at about 20° C. and 100% relative atmospheric humidity for 1 day.
The plants are then placed in a greenhouse at about 21° C. and a relative atmospheric humidity of about 90%.
as §2

Alternaria solani = assay: Alternaria test (tomato)/protective; type: in vivo; conditions: tomato plants, protective spray, application rate 750 g/ha, evaluation 7 days after inoculation
Description: Alternaria Test (Tomato)/Protective
• Solvent: 49 parts by weight of N,N-dimethylformamide • Emulsifier: 1 part by weight of alkylaryl polyglycol ether
as §1
To test for protective activity, young tomato plants are sprayed with the preparation of active compound at the stated application rate. 1 day after the treatment, the plants are inoculated with a spore suspension of Alternaria solani. The plants then remain at 100% relative atmospheric humidity and 20° C. for 24 hours. Subsequently, the plants remain at 96% relative atmospheric humidity and a temperature of 20° C.
as §4

[2] = cucumber plants, protective spray, application rate 100 g/ha, evaluation 7 days after inoculation

Row | chromatographic logP [1] | SMILES | Efficacy in % (Puccinia recondita) | pest or weed control at 100 g/ha (Sphaerotheca fuliginea; [2]) | Efficacy in % (Venturia inaequalis) | pest or weed control at 100 g/ha (Sphaerotheca fuliginea) | Efficacy in % (Alternaria solani)
1 | 3.5 | Cc1nc(C(F)F)c(C(=O)Nc2ccccc2C2CCCCC2)s1 [Example 1, N-(2-cyclohexylphenyl)-4-(difluoromethyl)-2-methyl-1,3-thiazole-5-carboxamide] | 100% | 89% | 100% | – | –
2 | 3.24 | Cc1nc(C(F)F)c(C(=O)Nc2ccc(F)cc2C2CCCC2)s1 [Example 6] | – | 88% | 99% | – | –
3 | 4.06 | Cc1nc(C(F)F)c(C(=O)Nc2ccccc2C2CCCCCCC2)s1 [Example 8] | 100% | 93% | 100% | – | –
4 | 4.27 | Cc1nc(C(F)F)c(C(=O)Nc2ccc(Br)cc2C2CC3CCC2C3)s1 (stereo not shown) [Example 14] | – | 100% | 100% | – | 95%
5 | 3.88 | Cc1nc(C(F)F)c(C(=O)Nc2ccccc2C2CCC[C@@H](C)C2)s1 (stereo partly shown) [Example 18] | – | 100% | 100% | – | 100%
6 | 3.96 | Cc1nc(C(F)F)c(C(=O)N(C)c2ccccc2C2CC3CCC2C3)s1 (stereo not shown) [Example 19] | – | 98% | – | – | –
7 | 3.85 | Cc1nc(C(F)F)c(C(=O)N(C)c2ccccc2C2CCCCC2)s1 [Example 20] | – | 100% | – | – | –
8 | 3.95 | CC(=O)N(C(=O)c1sc(C)nc1C(F)F)c1ccccc1C1CC2CCC1C2 (stereo not shown) [Example 21] | – | 98% | 96% | – | 100%
9 | 3.86 | CC(=O)N(C(=O)c1sc(C)nc1C(F)F)c1ccccc1C1CCCCC1 [Example 22] | 93% | 96% | – | – | –

Row | SMILES | chromatographic logP [1] | Efficacy in % (Puccinia recondita) | pest or weed control at 100 g/ha (Sphaerotheca fuliginea; [2]) | Efficacy in % (Venturia inaequalis) | pest or weed control at 100 g/ha (Sphaerotheca fuliginea) | Efficacy in % (Alternaria solani)
10 | Cc1nc(C(F)F)c(C(=O)Nc2ccccc2C2CC3CCC2C3)s1 (stereo not shown) [Example 2, N-(2-bicyclo[2.2.1]hept-2-ylphenyl)-4-(difluoromethyl)-2-methyl-1,3-thiazole-5-carboxamide] | 3.63 | 100% | – | 100% | 100% | –
